From patent US20070243161A1, “Epigenetic modification of the loci for CAMTA1 and/or FOXP3 as a marker for cancer treatment” (priority 2006, published 2007)

How the values were obtained:
[1] = test system: foxp3 locus; assay: Bisulphite sequencing of the foxp3 locus in CD25-CD4+ T cells cultured with TGF-β; type: cell-based, BALB/c mice
Description: D4+ T cells were isolated from pooled spleen and LN single cell suspensions by using anti CD4-FITC plus anti FITC multisort microbeads and the AutoMACS magnetic separation system (Miltenyi Biotec). After release of beads according to the manufacturer's instructions, CD25+ cells were depleted by using anti CD25-APC plus anti APC microbeads. To avoid the expansion of pre-committed Foxp3+ Tregs, the inventors excluded the majority of residual Foxp3+ Tregs from the CD25−CD4+ T cell fraction by sorting for CD62L^high cells using anti CD62L microbeads. MACS-sorted CD62L^highCD25−CD4+ T cells were stimulated for 3 days using plate bound anti CD3 (6 μg/ml) and anti CD28 (4 μg/ml). For Th1 cultures 5 μg/ml anti-IL-4, 20 ng/ml IFN-γ and 5 ng/ml IL-12 was added to the medium. For TGF-β cultures 5 ng/ml TGF-β and 10 ng/ml IL-2 was used. After 3 days, cells were removed from the stimulus, transferred to non-coated plates and cultured for another 3 days. All cell culture was done with RPMI 1640 (Gibco) supplemented with 10% FCS (Sigma). On day 6, cultured cells were stained using anti CD25-APC and sorted for CD25+ cells by FACS (Aria). Foxp3 expression of sorted CD25+ cells was analyzed by intracellular staining. For restimulation experiments sorted CD25+ cells were stimulated for 3 days using plate bound anti CD3 (6 μg/ml) and anti CD28 (4 μg/ml) plus IL-2 (10 ng/ml). After 3 days, cells were removed from the stimulus, transferred to non-coated plates and cultured for another 3 days. On day 6, cultured cells were stained for CD25 and Foxp3 as described above.
Genomic DNA was isolated from purified T cells using the DNeasy tissue kit (Qiagen) following the supplier's recommendations. Sodium bisulphite treatment of genomic DNA was performed according to Olek et al. (Olek, A., Oswald, J. and Walter, J. A modified and improved method for bisulphite based cytosine methylation analysis. Nucleic Acids Res 24, 5064-6 (1996)) with minor modifications, resulting in the deamination of unmethylated cytosines to uracil, whereas methylated cytosines remain unchanged. In a subsequent PCR amplification uracils were replicated as thymidines. Thus, detection of a “C” in sequencing reactions reflects methylation of the genomic DNA at that site. Detection of a “T” at the same site instead reflects the absence of a methyl modification of the genomic cytosine.
PCRs were performed on MJ Research thermocyclers (Waltham) in a final volume of 25 μl containing 1×PCR Buffer, 1 U Taq DNA polymerase (Qiagen), 200 μM dNTPs, 12.5 pmol each of forward and reverse primers, and 7 ng of bisulphite-treated genomic DNA. The amplification conditions were 95° C. for 15 min and 40 cycles of 95° C. for 1 min, 55° C. for 45 sec and 72° C. for 1 min and a final extension step of 10 min at 72° C. PCR products were purified using ExoSAP-IT USB Corp.) and sequenced in both directions applying the PCR primers and the ABI Big Dye Terminator v1.1 cycle sequencing chemistry (Applied Biosystems) followed by capillary electrophoresis on an ABI 3100 genetic analyzer. Trace files were interpreted using ESME, which normalizes sequence traces, corrects for incomplete bisulphite conversion and allows for quantification of methylation signals (Lewin, J., Schmitt, A. O., Adorjan, P., Hildmann, T. and Piepenbrock, C. Quantitative DNA methylation analysis based on four-dye trace data from direct sequencing of PCR amplificates. Bioinformatics 20, 3005-12 (2004)). For each sample both PCR amplification and sequencing was repeated once. The following primers (5′ to 3′ direction) were used for both PCR amplification of bisulphite converted genomic DNA and sequence reactions: […]

[2] = test system: Foxp3; assay: Intracellular Foxp3 expression by FACS in TGF-β-cultured CD25-CD4+ T cells; type: cell-based, BALB/c mice
Description: Cytometric analysis was performed as previously described (Huehn, J. et al. Developmental stage, phenotype and migration distinguish naive- and effector/memory-like CD4+ regulatory T cells. J Exp Med 199, 303-313 (2004)) using a FACS Calibur or a LSRII (BD Biosciences) and the CellQuest™ software. Dead cells were excluded by PI (propidium iodide) or DAPI (diamidophenylindole) staining (Sigma). Intracellular Foxp3 staining was performed with the PE anti-mouse Foxp3 staining set according to the manufacturers instructions.
D4+ T cells were isolated from pooled spleen and LN single cell suspensions by using anti CD4-FITC plus anti FITC multisort microbeads and the AutoMACS magnetic separation system (Miltenyi Biotec). After release of beads according to the manufacturer's instructions, CD25+ cells were depleted by using anti CD25-APC plus anti APC microbeads. To avoid the expansion of pre-committed Foxp3+ Tregs, the inventors excluded the majority of residual Foxp3+ Tregs from the CD25−CD4+ T cell fraction by sorting for CD62L^high cells using anti CD62L microbeads. MACS-sorted CD62L^highCD25−CD4+ T cells were stimulated for 3 days using plate bound anti CD3 (6 μg/ml) and anti CD28 (4 μg/ml). For Th1 cultures 5 μg/ml anti-IL-4, 20 ng/ml IFN-γ and 5 ng/ml IL-12 was added to the medium. […] Foxp3 expression of sorted CD25+ cells was analyzed by intracellular staining. […]

[3] = cell culture in the presence of TGF-β
[4] = sorted CD25+ cells, day 6 TGF-β culture, exp. 1
[5] = sorted CD25+ cells, day 6 TGF-β culture, exp. 2

“TGF-β: cytokine (R and D Systems) added at 5 ng/ml with IL-2 to induce Foxp3+ Tregs from CD25-CD4+ T cells” was tested, and the “methylation of CpG motifs in amplicons 3 and 4” value [1, 3] was “fully methylated”, the “methylation of CpG motifs within region covered by amplicons 1 and 2” value [1, 3] was “clearly visible demethylation” and the “degree of methylation, CpG motif amplicon 1 (158)” value [1, 4] was 100%. The “degree of methylation, CpG motif amplicon 1 (180)” value [1, 4] was 92%, the “degree of methylation, CpG motif amplicon 1 (308)” value [1, 4] was 63% and the “degree of methylation, CpG motif amplicon 1 (344)” value [1, 4] was 41%. For the same substance, the “degree of methylation, CpG motif amplicon 1 (360)” value [1, 4] was 60%, the “degree of methylation, CpG motif amplicon 1 (394)” value [1, 4] was 28% and the “degree of methylation, CpG motif amplicon 1 (421)” value [1, 4] was 42%. For the same substance, the “degree of methylation, CpG motif amplicon 1 (426)” value [1, 4] was 48%, the “degree of methylation, CpG motif amplicon 2 (205)” value [1, 4] was 74% and the “degree of methylation, CpG motif amplicon 2 (224)” value [1, 4] was 72%. The “degree of methylation, CpG motif amplicon 2 (228)” value [1, 4] was 100%, the “degree of methylation, CpG motif amplicon 2 (236)” value [1, 4] was 75% and the “degree of methylation, CpG motif amplicon 2 (298)” value [1, 4] was 64%. For the same substance, the “degree of methylation, CpG motif amplicon 2 (368)” value [1, 4] was 39%, the “degree of methylation, CpG motif amplicon 3 (93)” value [1, 4] was 100% and the “degree of methylation, CpG motif amplicon 3 (170)” value [1, 4] was 100%. The “degree of methylation, CpG motif amplicon 3 (173)” value [1, 4] was 100%, the “degree of methylation, CpG motif amplicon 3 (176)” value [1, 4] was 100% and the “degree of methylation, CpG motif amplicon 3 (281)” value [1, 4] was 100%. The “degree of methylation, CpG motif amplicon 4 (69)” value [1, 4] was 100%, the “degree of methylation, CpG motif amplicon 4 (311)” value [1, 4] was 100% and the “degree of methylation, CpG motif amplicon 4 (315)” value [1, 4] was 100%. The “degree of methylation, CpG motif amplicon 4 (319)” value [1, 4] was 100%, the “degree of methylation, CpG motif amplicon 4 (338)” value [1, 4] was 90% and the “degree of methylation, CpG motif amplicon 4 (371)” value [1, 4] was 100%. The “degree of methylation, CpG motif amplicon 1 (158)” value [1, 5] was 100%, the “degree of methylation, CpG motif amplicon 1 (180)” value [1, 5] was 93% and the “degree of methylation, CpG motif amplicon 1 (308)” value [1, 5] was 75%. The “degree of methylation, CpG motif amplicon 1 (344)” value [1, 5] was 41%, the “degree of methylation, CpG motif amplicon 1 (360)” value [1, 5] was 70% and the “degree of methylation, CpG motif amplicon 1 (394)” value [1, 5] was 38%. For the same substance, the “degree of methylation, CpG motif amplicon 2 (205)” value [1, 5] was 67.5%, the “degree of methylation, CpG motif amplicon 2 (224)” value [1, 5] was 75% and the “degree of methylation, CpG motif amplicon 2 (228)” value [1, 5] was 90%. The “degree of methylation, CpG motif amplicon 2 (236)” value [1, 5] was 66%, the “degree of methylation, CpG motif amplicon 2 (298)” value [1, 5] was 43% and the “degree of methylation, CpG motif amplicon 2 (368)” value [1, 5] was 50%. For the same substance, the “degree of methylation, CpG motif amplicon 3 (170)” value [1, 5] was 100%, the “degree of methylation, CpG motif amplicon 3 (173)” value [1, 5] was 100% and the “degree of methylation, CpG motif amplicon 3 (176)” value [1, 5] was 100%. The “degree of methylation, CpG motif amplicon 3 (281)” value [1, 5] was 96%, the “degree of methylation, CpG motif amplicon 4 (69)” value [1, 5] was 100% and the “degree of methylation, CpG motif amplicon 4 (311)” value [1, 5] was 100%. The “degree of methylation, CpG motif amplicon 4 (315)” value [1, 5] was 100%, the “degree of methylation, CpG motif amplicon 4 (319)” value [1, 5] was 100% and the “degree of methylation, CpG motif amplicon 4 (338)” value [1, 5] was 100%. The “degree of methylation, CpG motif amplicon 4 (371)” value [1, 5] was 100%, the “Foxp3+ cells among TGF-β-cultured cells” value ([2]; CD25-CD4+ T cells activated and cultured 6 days with TGF-β, day 6) was greater than 98% and the “Foxp3 expression after restimulation” value ([2]; TGF-β-induced Tregs restimulated 6 days in the absence of TGF-β) was “lost Foxp3 expression”.
